From publication PMC3737437, “The malQ gene is essential for starch metabolism in Streptococcus mutans” (Journal of Oral Microbiology, 2013) come the findings set out here.

The target of this experiment is T1, GlgP (Streptococcus mutans, UniProt Q8DT31).
T1 construct: gene overlapping malQ by 29 nt, not the second phosphorylase phsG
T1 sequence (Q8DT31 1-758): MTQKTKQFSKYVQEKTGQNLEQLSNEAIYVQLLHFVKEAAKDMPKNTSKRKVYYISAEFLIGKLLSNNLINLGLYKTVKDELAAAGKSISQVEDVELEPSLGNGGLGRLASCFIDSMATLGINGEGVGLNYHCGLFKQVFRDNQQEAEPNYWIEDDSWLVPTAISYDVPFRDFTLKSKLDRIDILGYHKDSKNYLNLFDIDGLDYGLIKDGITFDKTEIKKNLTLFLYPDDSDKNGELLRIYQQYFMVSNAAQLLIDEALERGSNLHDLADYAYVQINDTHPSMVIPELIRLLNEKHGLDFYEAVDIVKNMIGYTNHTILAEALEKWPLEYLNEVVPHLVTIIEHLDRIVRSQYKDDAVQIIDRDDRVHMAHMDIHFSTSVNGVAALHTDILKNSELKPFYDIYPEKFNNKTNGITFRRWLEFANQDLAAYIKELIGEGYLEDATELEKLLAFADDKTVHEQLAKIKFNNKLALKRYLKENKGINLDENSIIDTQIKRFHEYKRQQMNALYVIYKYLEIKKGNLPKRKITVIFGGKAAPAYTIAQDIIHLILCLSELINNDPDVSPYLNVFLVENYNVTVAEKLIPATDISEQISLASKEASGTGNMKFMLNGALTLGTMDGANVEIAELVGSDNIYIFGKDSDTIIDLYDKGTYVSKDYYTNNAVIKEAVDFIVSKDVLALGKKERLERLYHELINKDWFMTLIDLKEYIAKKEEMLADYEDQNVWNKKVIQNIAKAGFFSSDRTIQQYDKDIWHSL
Put plainly: phosphorylase assay, phosphoglucomutase / glucose-6-phosphate dehydrogenase-NADP end-point at […] nm. Particulars: formed from 1% maltodextrin or 0.8% amylodextrin, 50 mM potassium phosphate pH 7, 0.5 mM MgCl2, 37 °C, 10 min. The experiment is classed as biochemical.

Consider `O=P(O)(O)O[C@H]1O[C@H](CO)[C@@H](O)[C@H](O)[C@H]1O` [glucose-1-phosphate], for which the “phosphorylase assay, phosphoglucomutase / glucose-6-phosphate dehydrogenase-NADP” value is “generated glucose-1-phosphate from maltodextrin and amylodextrin”.
